{"source": "patent US20230085307A1", "about": "“PYRIDAZINONE COMPOUND AND HERBICIDE” (NISSAN CHEMICAL CORPORATION, priority 2019, published 2023)"}
{"tested_on": "windgrass", "assay": "Test Example 5: herbicidal effect by foliage application, plastic box (Table 20, symbol L)", "assay_type": "in vivo, windgrass (Apera spica-venti)", "details": "amount of applied herbicide 320 g/ha; foliage application after 14-day growth; evaluated three weeks after application", "outline": "(§1)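 Sow seeds spot-wise in sterilized diluvial soil; cover with ~1.5 cm soil. Grow 14 days in greenhouse, 25° C. to 30° C. Spray foliage with emulsion diluted to predetermined amount. Rate effect after 3 weeks.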"}
{"smiles": "CCCC(=O)Oc1c(C)nn(C)c(=O)c1-c1c(-c2ccccc2OC)sc2cc(F)c(F)cc12", "note": "[5-012]", "Herbicidal effect by foliage application, L: windgrass": "1 (Herbicidal rate of 5% or more and less than 20%)"}
{"smiles": "COc1ccc(-c2sc3cc(Cl)c(Cl)cc3c2-c2c(O)c(C)nn(C)c2=O)cc1", "note": "[5-043]", "Herbicidal effect by foliage application, L: windgrass": "0 (Herbicidal rate of 5% or less (almost no effect))"}
{"tested_on": "lambsquarters", "assay": "Test Example 4: herbicidal effect by soil treatment (Table 19, symbol O)", "assay_type": "in vivo, lambsquarters (Chenopodium album)", "details": "amount of applied herbicide 320 g/ha", "outline": "(§2)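 Soil-surface application: an emulsion agent diluted with water to the predetermined dose is sprayed uniformly over seeds lying under roughly 1.5 cm of sterilized diluvial soil. Boxes stay in a greenhouse at 25° C. to 30° C. Three weeks later, each species is graded on previously defined criteria.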"}
{"smiles": "CCCC(=O)Oc1c(C)nn(C)c(=O)c1-c1c(-c2ccccc2OC)sc2cc(F)c(F)cc12", "note": "[5-012]", "O: lambsquarters, herbicidal effect grade": "5 (Herbicidal rate of 90% or more (almost completely withered))"}
{"smiles": "COc1ccc(-c2sc3cc(Cl)c(Cl)cc3c2-c2c(O)c(C)nn(C)c2=O)cc1", "note": "[5-043]", "O: lambsquarters, herbicidal effect grade": "0 (Herbicidal rate of 5% or less (almost no effect))"}
{"tested_on": "Italian ryegrass", "assay": "Test Example 4: herbicidal effect by soil treatment (Table 19, symbol K)", "assay_type": "in vivo, Italian ryegrass (Lolium multiflorum)", "details": "amount of applied herbicide 320 g/ha", "outline": "as §2"}
{"smiles": "CCCC(=O)Oc1c(C)nn(C)c(=O)c1-c1c(-c2ccccc2OC)sc2cc(F)c(F)cc12", "note": "[5-012]", "K: Italian ryegrass, herbicidal effect grade": "0 (Herbicidal rate of 5% or less (almost no effect))"}
{"smiles": "COc1ccc(-c2sc3cc(Cl)c(Cl)cc3c2-c2c(O)c(C)nn(C)c2=O)cc1", "note": "[5-043]", "K: Italian ryegrass, herbicidal effect grade": "0 (Herbicidal rate of 5% or less (almost no effect))"}
{"tested_on": "barnyard grass", "assay": "Test Example 5: herbicidal effect by foliage application, plastic box (Table 20, symbol H)", "assay_type": "in vivo, barnyard grass (Echinochloa crus-galli)", "details": "amount of applied herbicide 320 g/ha; foliage application after 14-day growth; evaluated three weeks after application", "outline": "as §1"}
{"smiles": "CCCC(=O)Oc1c(C)nn(C)c(=O)c1-c1c(-c2ccccc2OC)sc2cc(F)c(F)cc12", "note": "[5-012]", "Herbicidal effect by foliage application, H: barnyard grass": "2 (Herbicidal rate of 20% or more and less than 40%)"}
{"smiles": "COc1ccc(-c2sc3cc(Cl)c(Cl)cc3c2-c2c(O)c(C)nn(C)c2=O)cc1", "note": "[5-043]", "Herbicidal effect by foliage application, H: barnyard grass": "0 (Herbicidal rate of 5% or less (almost no effect))"}
{"tested_on": "rice flat sedge", "assay": "Test Example 3: herbicidal effect by foliage application, Wagner pot (Table 18, symbol E)", "assay_type": "in vivo, rice flat sedge (Cyperus iria)", "details": "320 g/ha", "outline": "(§3)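 Plants were sown in alluvial soil held under 0.1–0.5 cm standing water and grown 14 days in a greenhouse at 25–30 °C. An emulsifiable formulation, water-diluted to the set dose, was then sprayed onto the foliage, and effects were scored three weeks later using previously defined criteria.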"}
{"smiles": "CCCC(=O)Oc1c(C)nn(C)c(=O)c1-c1c(-c2ccccc2OC)sc2cc(F)c(F)cc12", "note": "[5-012]", "herbicidal effect on rice flat sedge (E)": "3 (Herbicidal rate of 40% or more and less than 70%)"}
{"smiles": "COc1ccc(-c2sc3cc(Cl)c(Cl)cc3c2-c2c(O)c(C)nn(C)c2=O)cc1", "note": "[5-043]", "herbicidal effect on rice flat sedge (E)": "4 (Herbicidal rate of 70% or more and less than 90%)"}
{"tested_on": "chickweed", "assay": "Test Example 5: herbicidal effect by foliage application, plastic box (Table 20, symbol P)", "assay_type": "in vivo, common chickweed (Stellaria media)", "details": "amount of applied herbicide 320 g/ha; foliage application after 14-day growth; evaluated three weeks after application", "outline": "as §1"}
{"smiles": "CCCC(=O)Oc1c(C)nn(C)c(=O)c1-c1c(-c2ccccc2OC)sc2cc(F)c(F)cc12", "note": "[5-012]", "Herbicidal effect by foliage application, P: chickweed": "5 (Herbicidal rate of 90% or more (almost completely withered))"}
{"smiles": "COc1ccc(-c2sc3cc(Cl)c(Cl)cc3c2-c2c(O)c(C)nn(C)c2=O)cc1", "note": "[5-043]", "Herbicidal effect by foliage application, P: chickweed": "5 (Herbicidal rate of 90% or more (almost completely withered))"}
{"tested_on": "Chinese sprangletop", "assay": "Test Example 3: herbicidal effect by foliage application, Wagner pot (Table 18, symbol D)", "assay_type": "in vivo, chinese sprangletop (Leptochloa chinensis)", "details": "320 g/ha", "outline": "as §3"}
{"smiles": "CCCC(=O)Oc1c(C)nn(C)c(=O)c1-c1c(-c2ccccc2OC)sc2cc(F)c(F)cc12", "note": "[5-012]", "herbicidal effect on Chinese sprangletop (D)": "2 (Herbicidal rate of 20% or more and less than 40%)"}
{"smiles": "COc1ccc(-c2sc3cc(Cl)c(Cl)cc3c2-c2c(O)c(C)nn(C)c2=O)cc1", "note": "[5-043]", "herbicidal effect on Chinese sprangletop (D)": "3 (Herbicidal rate of 40% or more and less than 70%)"}
{"tested_on": "lambsquarters", "assay": "Test Example 5: herbicidal effect by foliage application, plastic box (Table 20, symbol O)", "assay_type": "in vivo, lambsquarters (Chenopodium album)", "details": "amount of applied herbicide 320 g/ha; foliage application after 14-day growth; evaluated three weeks after application", "outline": "as §1"}
{"smiles": "CCCC(=O)Oc1c(C)nn(C)c(=O)c1-c1c(-c2ccccc2OC)sc2cc(F)c(F)cc12", "note": "[5-012]", "Herbicidal effect by foliage application, O: lambsquarters": "3 (Herbicidal rate of 40% or more and less than 70%)"}
{"smiles": "COc1ccc(-c2sc3cc(Cl)c(Cl)cc3c2-c2c(O)c(C)nn(C)c2=O)cc1", "note": "[5-043]", "Herbicidal effect by foliage application, O: lambsquarters": "3 (Herbicidal rate of 40% or more and less than 70%)"}
{"tested_on": "green foxtail", "assay": "Test Example 4: herbicidal effect by soil treatment (Table 19, symbol G)", "assay_type": "in vivo, green foxtail (Setaria viridis)", "details": "amount of applied herbicide 320 g/ha", "outline": "as §2"}
{"smiles": "CCCC(=O)Oc1c(C)nn(C)c(=O)c1-c1c(-c2ccccc2OC)sc2cc(F)c(F)cc12", "note": "[5-012]", "G: green foxtail, herbicidal effect grade": "3 (Herbicidal rate of 40% or more and less than 70%)"}
{"smiles": "COc1ccc(-c2sc3cc(Cl)c(Cl)cc3c2-c2c(O)c(C)nn(C)c2=O)cc1", "note": "[5-043]", "G: green foxtail, herbicidal effect grade": "0 (Herbicidal rate of 5% or less (almost no effect))"}
{"tested_on": "Japanese bulrush", "assay": "Test Example 2: herbicidal activity, application during weed generation under submerged conditions (Table 17, symbol B)", "assay_type": "in vivo, Japanese bulrush (Schoenoplectus juncoides)", "details": "AAH 320 g/ha; application during weed generation, submerged conditions", "outline": "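3-wk visual-criteria score after one water-surface dose. Emulsion formulation, water-diluted to set rate; applied at 1–2 leaf stage; alluvial soil, 4 cm standing water; seeds co-sown; greenhouse 25–30° C.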"}
{"smiles": "CCCC(=O)Oc1c(C)nn(C)c(=O)c1-c1c(-c2ccccc2OC)sc2cc(F)c(F)cc12", "note": "[5-012]", "herbicidal effect rating, B: Japanese bulrush": "2 (Herbicidal rate of 20% or more and less than 40%)"}
{"smiles": "COc1ccc(-c2sc3cc(Cl)c(Cl)cc3c2-c2c(O)c(C)nn(C)c2=O)cc1", "note": "[5-043]", "herbicidal effect rating, B: Japanese bulrush": "0 (Herbicidal rate of 5% or less (almost no effect))"}
{"tested_on": "blackgrass", "assay": "Test Example 5: herbicidal effect by foliage application, plastic box (Table 20, symbol J)", "assay_type": "in vivo, blackgrass (Alopecurus myosuroides)", "details": "amount of applied herbicide 320 g/ha; foliage application after 14-day growth; evaluated three weeks after application", "outline": "as §1"}
{"smiles": "CCCC(=O)Oc1c(C)nn(C)c(=O)c1-c1c(-c2ccccc2OC)sc2cc(F)c(F)cc12", "note": "[5-012]", "Herbicidal effect by foliage application, J: blackgrass": "4 (Herbicidal rate of 70% or more and less than 90%)"}
{"smiles": "COc1ccc(-c2sc3cc(Cl)c(Cl)cc3c2-c2c(O)c(C)nn(C)c2=O)cc1", "note": "[5-043]", "Herbicidal effect by foliage application, J: blackgrass": "0 (Herbicidal rate of 5% or less (almost no effect))"}
{"tested_on": "wild oat", "assay": "Test Example 5: herbicidal effect by foliage application, plastic box (Table 20, symbol I)", "assay_type": "in vivo, wild oat (Avena fatua)", "details": "amount of applied herbicide 320 g/ha; foliage application after 14-day growth; evaluated three weeks after application", "outline": "as §1"}
{"smiles": "CCCC(=O)Oc1c(C)nn(C)c(=O)c1-c1c(-c2ccccc2OC)sc2cc(F)c(F)cc12", "note": "[5-012]", "Herbicidal effect by foliage application, I: wild oat": "2 (Herbicidal rate of 20% or more and less than 40%)"}
{"smiles": "COc1ccc(-c2sc3cc(Cl)c(Cl)cc3c2-c2c(O)c(C)nn(C)c2=O)cc1", "note": "[5-043]", "Herbicidal effect by foliage application, I: wild oat": "0 (Herbicidal rate of 5% or less (almost no effect))"}
{"tested_on": "barnyard grass", "assay": "Test Example 4: herbicidal effect by soil treatment (Table 19, symbol H)", "assay_type": "in vivo, barnyard grass (Echinochloa crus-galli)", "details": "amount of applied herbicide 320 g/ha", "outline": "as §2"}
{"smiles": "CCCC(=O)Oc1c(C)nn(C)c(=O)c1-c1c(-c2ccccc2OC)sc2cc(F)c(F)cc12", "note": "[5-012]", "H: barnyard grass, herbicidal effect grade": "1 (Herbicidal rate of 5% or more and less than 20%)"}
{"smiles": "COc1ccc(-c2sc3cc(Cl)c(Cl)cc3c2-c2c(O)c(C)nn(C)c2=O)cc1", "note": "[5-043]", "H: barnyard grass, herbicidal effect grade": "0 (Herbicidal rate of 5% or less (almost no effect))"}
{"tested_on": "Italian ryegrass", "assay": "Test Example 5: herbicidal effect by foliage application, plastic box (Table 20, symbol K)", "assay_type": "in vivo, Italian ryegrass (Lolium multiflorum)", "details": "amount of applied herbicide 320 g/ha; foliage application after 14-day growth; evaluated three weeks after application", "outline": "as §1"}
{"smiles": "CCCC(=O)Oc1c(C)nn(C)c(=O)c1-c1c(-c2ccccc2OC)sc2cc(F)c(F)cc12", "note": "[5-012]", "Herbicidal effect by foliage application, K: Italian ryegrass": "0 (Herbicidal rate of 5% or less (almost no effect))"}
{"smiles": "COc1ccc(-c2sc3cc(Cl)c(Cl)cc3c2-c2c(O)c(C)nn(C)c2=O)cc1", "note": "[5-043]", "Herbicidal effect by foliage application, K: Italian ryegrass": "0 (Herbicidal rate of 5% or less (almost no effect))"}
{"tested_on": "blackgrass", "assay": "Test Example 4: herbicidal effect by soil treatment (Table 19, symbol J)", "assay_type": "in vivo, blackgrass (Alopecurus myosuroides)", "details": "amount of applied herbicide 320 g/ha", "outline": "as §2"}
{"smiles": "CCCC(=O)Oc1c(C)nn(C)c(=O)c1-c1c(-c2ccccc2OC)sc2cc(F)c(F)cc12", "note": "[5-012]", "J: blackgrass, herbicidal effect grade": "3 (Herbicidal rate of 40% or more and less than 70%)"}
{"smiles": "COc1ccc(-c2sc3cc(Cl)c(Cl)cc3c2-c2c(O)c(C)nn(C)c2=O)cc1", "note": "[5-043]", "J: blackgrass, herbicidal effect grade": "0 (Herbicidal rate of 5% or less (almost no effect))"}
{"tested_on": "velvetleaf", "assay": "Test Example 5: herbicidal effect by foliage application, plastic box (Table 20, symbol M)", "assay_type": "in vivo, velvetleaf (Abutilon theophrasti)", "details": "amount of applied herbicide 320 g/ha; foliage application after 14-day growth; evaluated three weeks after application", "outline": "as §1"}
{"smiles": "CCCC(=O)Oc1c(C)nn(C)c(=O)c1-c1c(-c2ccccc2OC)sc2cc(F)c(F)cc12", "note": "[5-012]", "Herbicidal effect by foliage application, M: velvetleaf": "3 (Herbicidal rate of 40% or more and less than 70%)"}
{"smiles": "COc1ccc(-c2sc3cc(Cl)c(Cl)cc3c2-c2c(O)c(C)nn(C)c2=O)cc1", "note": "[5-043]", "Herbicidal effect by foliage application, M: velvetleaf": "4 (Herbicidal rate of 70% or more and less than 90%)"}
{"tested_on": "persian speedwell", "assay": "Test Example 5: herbicidal effect by foliage application, plastic box (Table 20, symbol R)", "assay_type": "in vivo, Persian speedwell (Veronica persica)", "details": "amount of applied herbicide 320 g/ha; foliage application after 14-day growth; evaluated three weeks after application", "outline": "as §1"}
{"smiles": "CCCC(=O)Oc1c(C)nn(C)c(=O)c1-c1c(-c2ccccc2OC)sc2cc(F)c(F)cc12", "note": "[5-012]", "Herbicidal effect by foliage application, R: persian speedwell": "3 (Herbicidal rate of 40% or more and less than 70%)"}
{"smiles": "COc1ccc(-c2sc3cc(Cl)c(Cl)cc3c2-c2c(O)c(C)nn(C)c2=O)cc1", "note": "[5-043]", "Herbicidal effect by foliage application, R: persian speedwell": "5 (Herbicidal rate of 90% or more (almost completely withered))"}
